Reference: US9127005B2, “Isoform selective phospholipase D inhibitors” (Vanderbilt University, priority 2009, dated 2015)

How the values were obtained:
PLD2 [1] = biological target: T1, PLD2 (Homo sapiens (Human), UniProt O14939); experiment: Exogenous CRCs: in vitro PLD2 response; assay type: biochemical
Excerpt: (§1) The screening method can comprise providing a sample comprising a phosholipid and a PLD under conditions that allow the hydrolysis of the phospholipids to a phosphatidic acid, contacting the sample with a candidate agent, measuring enzymatic activity, comparing the enzymatic activity to a control, a decrease in enzymatic activity compared to the control identifying an agent that inhibits the PLD.
(§2) In some aspects, the PLD is a myr-Aff-1-stimulated mammalian human PLD1 or human PLD2.

PLD1 [2] = biological target: T2, PLD1 (Homo sapiens (Human), UniProt Q13393); experiment: Exogenous CRCs: in vitro PLD1 response; assay type: biochemical
Excerpt: as §1, §2

PLD2 [3] = biological target: T1, PLD2; experiment: Cellular CRCs: PLD2 response in HEK293gfpPLD2 (293-PLD2) cells; assay type: cell-based; conditions: for Fold Selective: cellular CRCs, selectivity for PLD2 (293-PLD2) over PLD1 (Calu-1)
Excerpt: In some aspects PLD activity in the cell is mediated predominately by PLD2. Thus, in some aspects, the cell stably overexpresses recombinant PLD2. For example, the cell can be a HEK293 cell stably overexpressing green florescent protein (GFP)-tagged PLD2.

PLD1 [4] = biological target: T2, PLD1; experiment: Cellular CRCs: PLD1 response in Calu-1 cells; assay type: cell-based
Excerpt: In some aspects PLD activity in the cell is mediated predominately by PLD1. Thus, in some aspects, the cell is the human non-small-cell lung cancer (NSCLC) cell line Calu-1. In some aspects, the cell has been stimulated to activate PLD1 in the cell. For example, the cell can be stimulated with phorbol 12-myristate 13-acetate (PMA).

[5] = exogenous (in vitro) PLD2, read-out: Exogenous CRCs PLD2 IC50
[6] = HEK293 cells overexpressing GFP-tagged PLD2, read-out: Cellular CRCs 293-PLD2 IC50
[7] = Calu-1 cells (PLD1), read-out: Cellular CRCs Calu-1 IC50

T1 sequence (O14939 whole entry): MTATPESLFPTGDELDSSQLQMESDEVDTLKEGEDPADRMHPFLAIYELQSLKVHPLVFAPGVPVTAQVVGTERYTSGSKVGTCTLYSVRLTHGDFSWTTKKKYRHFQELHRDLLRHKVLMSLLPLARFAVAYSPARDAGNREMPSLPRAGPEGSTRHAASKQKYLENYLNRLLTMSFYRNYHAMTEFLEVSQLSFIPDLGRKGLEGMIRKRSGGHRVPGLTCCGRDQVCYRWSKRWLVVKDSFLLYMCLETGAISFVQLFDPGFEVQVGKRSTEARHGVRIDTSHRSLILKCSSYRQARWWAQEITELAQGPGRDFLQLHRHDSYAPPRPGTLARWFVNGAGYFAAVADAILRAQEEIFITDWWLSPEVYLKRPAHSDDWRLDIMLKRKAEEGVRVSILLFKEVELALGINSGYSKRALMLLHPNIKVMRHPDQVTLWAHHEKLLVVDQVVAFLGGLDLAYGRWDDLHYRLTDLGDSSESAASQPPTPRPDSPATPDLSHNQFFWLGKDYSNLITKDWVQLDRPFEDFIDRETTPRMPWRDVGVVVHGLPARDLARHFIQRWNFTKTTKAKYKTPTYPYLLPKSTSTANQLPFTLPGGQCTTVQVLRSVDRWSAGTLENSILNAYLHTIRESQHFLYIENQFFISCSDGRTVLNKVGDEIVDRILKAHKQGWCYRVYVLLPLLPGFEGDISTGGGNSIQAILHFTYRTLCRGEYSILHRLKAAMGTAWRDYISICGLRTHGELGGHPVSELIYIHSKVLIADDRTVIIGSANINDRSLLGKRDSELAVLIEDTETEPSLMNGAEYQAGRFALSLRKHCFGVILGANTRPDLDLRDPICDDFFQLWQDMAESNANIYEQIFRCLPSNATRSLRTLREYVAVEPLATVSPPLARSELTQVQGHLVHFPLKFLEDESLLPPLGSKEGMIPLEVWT
T2 sequence (Q13393 whole entry): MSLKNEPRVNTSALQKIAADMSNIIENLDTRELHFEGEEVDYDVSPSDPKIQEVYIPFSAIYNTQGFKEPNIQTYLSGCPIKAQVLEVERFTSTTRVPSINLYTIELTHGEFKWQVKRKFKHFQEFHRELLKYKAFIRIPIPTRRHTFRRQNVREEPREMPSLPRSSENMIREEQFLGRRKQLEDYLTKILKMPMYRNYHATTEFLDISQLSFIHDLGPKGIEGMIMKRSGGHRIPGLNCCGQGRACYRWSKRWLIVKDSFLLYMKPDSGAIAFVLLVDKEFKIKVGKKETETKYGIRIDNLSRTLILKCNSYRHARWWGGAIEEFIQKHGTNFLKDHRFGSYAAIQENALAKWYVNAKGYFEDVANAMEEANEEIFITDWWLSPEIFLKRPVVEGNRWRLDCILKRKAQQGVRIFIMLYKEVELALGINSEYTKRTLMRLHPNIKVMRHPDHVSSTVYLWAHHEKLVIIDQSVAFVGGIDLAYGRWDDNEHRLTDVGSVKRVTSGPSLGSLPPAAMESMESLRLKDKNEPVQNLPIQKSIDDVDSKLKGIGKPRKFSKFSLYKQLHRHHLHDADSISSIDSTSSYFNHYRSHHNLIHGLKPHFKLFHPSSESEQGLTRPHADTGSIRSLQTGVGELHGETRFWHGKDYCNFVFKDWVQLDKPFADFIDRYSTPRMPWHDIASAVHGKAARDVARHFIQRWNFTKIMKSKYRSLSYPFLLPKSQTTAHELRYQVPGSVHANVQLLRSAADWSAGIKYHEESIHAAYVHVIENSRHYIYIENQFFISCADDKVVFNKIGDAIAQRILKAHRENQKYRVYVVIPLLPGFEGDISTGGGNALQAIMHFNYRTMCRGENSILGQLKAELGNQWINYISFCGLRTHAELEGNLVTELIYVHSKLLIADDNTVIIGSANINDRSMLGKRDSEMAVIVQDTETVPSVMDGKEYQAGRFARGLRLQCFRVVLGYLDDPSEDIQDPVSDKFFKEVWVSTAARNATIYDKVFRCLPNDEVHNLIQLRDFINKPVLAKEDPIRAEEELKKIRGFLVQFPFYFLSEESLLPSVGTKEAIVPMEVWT

“4-fluoro-N-((S)-1- ((S)-4-(4- fluorophenyl)-1-oxo- 2,8- diazaspiro[4.5]decan- 8-yl)propan-2- yl)benzamide 2,2,2- trifluoroacetate [P2B]” was tested, and the IC50 (PLD2 [1]; [5]) was 9.44 µM, the IC50 (PLD1 [2]) was 5.15 µM and the IC50 (PLD2 [3]; [6]) was 2.8 µM. For the same compound, the IC50 (PLD1 [4]; [7]) was 1.7 µM.
With `O=C(NCCN1CCC2(CC1)C(=O)NC[C@@H]2c1ccc(F)cc1)C1C[C@H]1c1ccccc1.O=C(O)C(F)(F)F` (stereo partly drawn) [P1E, trans-N-(2-((R)-4-(4-fluorophenyl)-1-oxo-2,8-diazaspiro[4.5]decan-8-yl)ethyl)-2-phenylcyclopropane-carboxamide 2,2,2-trifluoroacetate] the IC50 (PLD2 [3]; [6]) was 0.76 µM, the “Fold Selective” value (PLD2 [3]) was 8-fold PLD2 and the IC50 (PLD1 [4]; [7]) was 6.1 µM.
For `C[C@@H](CN1CCC2(CC1)C(=O)NCC2c1ccc(F)cc1)NC(=O)C1C[C@H]1c1ccccc1` (stereo partly drawn) [NGQ, trans-N-((S)-1-((S)-4-(4-fluorophenyl)-1-oxo-2,8-diazaspiro[4.5]decan-8-yl)propan-2-yl)-2-phenylcyclopropane-carboxamide 2,2,2-trifluoroacetate], the IC50 (PLD2 [3]; [6]) was > 20 µM and the IC50 (PLD1 [4]; [7]) was 3 µM.
In the case of `O=C(C#Cc1ccccc1)NCCN1CCC2(CC1)C(=O)NC[C@@H]2c1ccc(F)cc1.O=C(O)C(F)(F)F` [P0Q, (R)-N-(2-(4-(4-fluorophenyl)-1-oxo-2,8-diazaspiro[4.5]decan-8-yl)ethyl)-3-phenylpropiolamide 2,2,2-trifluoroacetate], the IC50 (PLD2 [3]) is reported as 0.07 µM, the “Fold Selective” value (PLD2 [3]) is reported as 17-fold PLD2 and the IC50 (PLD1 [4]) is reported as 1.2 µM.
`C[C@@H](CN1CCC2(CC1)C(=O)NC[C@@H]2c1ccc(F)cc1)NC(=O)C#Cc1ccccc1` [NGF, N—((S)-1-((R)-4-(4-Fluorophenyl)-1-oxo-2,8-diazaspiro[4.5]decan-8-yl)propan-2-yl)-3-phenylpropiolamide 2,2,2-trifluoroacetate] gave an IC50 (PLD2 [3]) of 0.15 µM and an IC50 (PLD1 [4]; [7]) of 0.016 µM.
Compound `C[C@@H](CN1CCC2(CC1)C(=O)NC[C@@H]2c1ccc(F)cc1)NC(=O)c1cc2ccccc2[nH]1` [P1G, N-((S)-l-((R)-4-(4-fluorophenyl)-1-oxo-2,8-diazaspiro[4.5]decan-8-yl)propan-2-yl)-1H-indole-2-carboxamide 2,2,2-trifluoroacetate] has an IC50 (PLD2 [3]) of 0.012 µM and an IC50 (PLD1 [4]) of 0.001 µM.
Compound `C[C@@H](CN1CCC2(CC1)C(=O)NC[C@H]2c1ccc(F)cc1)NC(=O)c1ccc2ccccc2c1` [P1Q, N-((S)-1-((S)-4-(4-fluorophenyl)-1-oxo-2,8-diazaspiro[4.5]decan-8-yl)propan-2-yl)-2-naphthamide 2,2,2-trifluoroacetate] has an IC50 (PLD2 [3]; [6]) of 0.54 µM and an IC50 (PLD1 [4]; [7]) of 0.093 µM.
In the case of `O=C(NCCN1CCC2(CC1)C(=O)NC[C@H]2c1ccc(F)cc1)c1ccc2ccccc2c1.O=C(O)C(F)(F)F` [P1D], the IC50 (PLD2 [3]; [6]) is reported as 0.22 µM, the “Fold Selective” value (PLD2 [3]) is reported as 17-Fol PLD2 fold and the IC50 (PLD1 [4]; [7]) is reported as 3.7 µM.
`O=C(NCCN1CCC2(CC1)C(=O)NC[C@@H]2c1ccc(F)cc1)c1cc2ccccc2[nH]1.O=C(O)C(F)(F)F` [P23, (R)-N-(2-(4-(4-fluorophenyl)-1-oxo-2,8-diazaspiro[4.5]decan-8-yl)ethyl)-1H-indole-2-carboxamide 2,2,2-trifluoroacetate] was tested, and the IC50 (PLD2 [3]) was 0.0025 µM, the “Fold Selective” value (PLD2 [3]) was 8 fold PLD2 and the IC50 (PLD1 [4]) was 0.021 µM.
`C[C@@H](CN1CCC2(CC1)C(=O)NC[C@H]2c1ccc(F)cc1)NC(=O)C#Cc1ccccc1` [NJ5, N-((S)-1-((S)-4-(4-fluorophenyl)-1-oxo-2,8-diazaspiro[4.5]decan-8-yl)propan-2-yl)-3-phenylpropiolamide 2,2,2-trifluoroacetate] was tested, and the IC50 (PLD2 [3]) was 4 µM and the IC50 (PLD1 [4]; [7]) was 0.32 µM.
`C[C@@H](CN1CCC2(CC1)C(=O)NC[C@@H]2c1ccc(F)cc1)NC(=O)c1ccc(F)cc1` [NGH, 4-fluoro-N-((S)-1-((R)-4-(4-fluorophenyl)-1-oxo-2,8-diazaspiro[4.5]deean-8-yl)propan-2-yl)benzamide 2,2,2-txifluoroacetate] gave an IC50 (PLD2 [1]) of 2.24 µM, an IC50 (PLD2 [3]) of 0.21 µM and an IC50 (PLD1 [4]) of 0.25 µM.
`C[C@@H](CN1CCC2(CC1)C(=O)NC[C@H]2c1ccc(F)cc1)NC(=O)c1cc2ccccc2[nH]1` [NG3, N-((S)-1-((S)-4-(4-fluorophenyl)-1-oxo-2,8-diazaspiro[4.5]decan-8-yl)propan-2-yl)-1H-indole-2-carboxamide 2,2,2-trifluoroacetate] gave an IC50 (PLD2 [3]) of 0.14 µM and an IC50 (PLD1 [4]; [7]) of 0.016 µM.
`C[C@@H](CN1CCC2(CC1)C(=O)NC[C@@H]2c1ccc(F)cc1)NC(=O)C1C[C@H]1c1ccccc1` (stereo partly drawn) [P0A, trans-N-((S)-1-((R)-4-(4-fluorophenyl)-1-oxo-2,8-diazaspiro[4.5]decan-8-yl)propan-2-yl)-2-phenylcyclopropane-carboxamide 2,2,2-trifluoroacetate] gave an IC50 (PLD2 [3]; [6]) of 14 µM and an IC50 (PLD1 [4]; [7]) of 0.6 µM.
`O=C(NCCN1CCC2(CC1)C(=O)NC[C@H]2c1ccc(F)cc1)c1ccc2ccccc2c1.O=C(O)C(F)(F)F` [P22, (S)-N-(2-(4-(4-fluorophenyl)-1-oxo-2,8-diazaspiro[4.5]decan-8-yl)ethyl)-2-naphthamide 2,2,2-trifluoroacetate] was tested, and the IC50 (PLD2 [1]; [5]) was 0.073 µM, the IC50 (PLD1 [2]) was 3.9 µM and the IC50 (PLD2 [3]; [6]) was 0.026 µM. For the same compound, the “Fold Selective” value (PLD2 [3]; trifluoroacetate) was 32-fold PLD2 and the IC50 (PLD1 [4]; [7]) was 0.82 µM.
